Literature values, collected in US20200146297A1, “FAST SYMPTOM HERBICIDAL COMPOSITIONS CONTAINING AN ORGANO[…], BI[…] A[…] SURFACTANT” (Monsanto Technology LLC, priority 2016, published 2020).

Key:
[1] = known to decompose
plant = details: after treatment

Compound | pH at which decomposition occurs [1] | time until visual symptoms of treatment appear (plant)
c1cc[n+]2c(c1)-c1cccc[n+]1CC2 [Diquat dibromide] | greater than 7 | –
O=C(O)CNCP(=O)(O)O [glyphosate, N-(phosphonomethyl)glycine] | – | one week or more
